Data on 24 compounds can be found in patent publication US9163012B2, “Carbamate and urea inhibitors of 11β-hydroxysteroid dehydrogenase 1” (Vitae Pharmaceuticals, Inc., priority 2009, dated 2015).

The experiment concerns the target 11β-HSD1 (Homo sapiens (Human), UniProt P28845). As to the kind of experiment: Biological Test Example 1: inhibition of a microsomal preparation of 11β-HSD1 (SPA). The note with it: for IC50 / Average % inhibition at 100 nM / inhibition at 0.111 µM: Biological Test Example 1; for inhibition at 0.111 µM: 111 nM compound, read-out: Average % inhibition at 111 nM. In kind it is biochemical. As for the experimental part:
All reactions were carried out at rt in 96 well clear flexible PET Microbeta plates (PerkinElmer). […] After a 10 minute pre-incubation, 50 μL of enzyme solution containing microsomes isolated from CHO cells overexpressing human 11-HSD1 (10-20 μg/ml of total protein) was added, and the plates were incubated for 90 minutes at rt. The reaction was stopped by adding 50 μl of the SPA beads suspension containing 10 μM […], 5 mg/ml protein A coated YSi SPA beads (GE Healthcare) and 3.3 μg/ml of anti-cortisol antibody (East Coast Biologics) in Superblock buffer (Bio-Rad). The plates were shaken for 120 minutes at rt, and the SPA signal corresponding to [^3H]cortisol was measured on a Microbeta plate reader.

Setting [1] is: microsomes from CHO cells overexpressing human 11β-HSD1, read-out: IC50 Range.
Where [2] appears, read: read-out: Average % inhibition at 100 nM, Biological Test Example 1, 100 nM compound.

SMILES strings stand for the structures. Read-outs that look alike come from different tables or passages of the source.

Chain of 11β-HSD1 (P28845 whole entry): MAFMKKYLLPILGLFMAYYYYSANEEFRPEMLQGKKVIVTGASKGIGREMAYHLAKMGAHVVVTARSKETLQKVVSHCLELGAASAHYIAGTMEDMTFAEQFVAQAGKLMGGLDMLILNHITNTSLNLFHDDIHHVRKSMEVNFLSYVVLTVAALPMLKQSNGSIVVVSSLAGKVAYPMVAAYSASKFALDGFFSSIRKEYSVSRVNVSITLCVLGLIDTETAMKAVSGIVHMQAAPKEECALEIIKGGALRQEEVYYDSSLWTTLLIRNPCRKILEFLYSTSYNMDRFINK

Usually IC50 stands for the midpoint of a concentration-inhibition curve. Usually inhibition stands for the percentage by which the read-out fell short of the control. Turning to `NC(=O)[C@]12CC3CC(C1)[C@@H](OC(=O)N1CC[C@H](n4c(=O)[nH]c5cc(F)ccc54)C1)C(C3)C2` [EXAMPLE 63, (S)-trans-1-carbamoyl-4-adamantyl 3-(5-fluoro-2-oxo-2,3-dihydro-1H-benzo[d]imidazol-1-yl)pyrrolidine-1-carboxylate], the IC50 is, setting by setting: under setting [1], under 100 nM; (read-out: IC50) 1.01 nM. Also, the inhibition at 0.1 µM under setting [2] turned out to be 91.2%.
With `O=C(OC1C2CC3CC1CC(C(=O)O)(C3)C2)N1CCC(c2ncc(Cl)cn2)C1` (single isomer, unassigned) [EXAMPLE 46 Isomer 2, cis-4-((3-(5-chloropyrimidin-2-yl)pyrrolidine-1-carbonyl)oxy)adamantane-1-carboxylic acid], the “Average % inhibition at 100 nM” value (100 nM compound) was 3.8%. Besides, the 50% inhibitory concentration (IC50) is over 100 nM under setting [1] and over 100 nM (read-out: IC50).
As for `NC(=O)C12CC3CC(C1)C(OC(=O)N1CCC(c4ncc(F)cn4)C1)C(C3)C2` (single isomer, unassigned) [EXAMPLE 41 Isomer 1, 1-carbamoyl-4-adamantyl 3-(5-fluoropyrimidin-2-yl)pyrrolidine-1-carboxylate], the “Average % inhibition at 100 nM” value (100 nM compound) was 92.3%.
Regarding `O=C(O)c1ccc(C2CCCN(C(=O)OC3C4CC5CC(C4)CC3C5)C2)cc1` (stereo not shown) [EXAMPLE 18, 4-(1-(2-adamantyloxycarbonyl)piperidin-3-yl)benzoic acid], the inhibition at 0.111 µM was 82.2%. For the same compound, the IC50 under setting [1] was under 100 nM. The IC50 (read-out: IC50) turned out to be 27.8 nM.
Consider `Cn1c(=O)ccc2cc(C3CCN(C(=O)OC4C5CC6CC(C5)CC4C6)C3)ccc21` (stereo not shown) [EXAMPLE 17, 2-adamantyl 3-(1-methyl-2-oxo-1,2-dihydroquinolin-6-yl)pyrrolidine-1-carboxylate], for which the IC50 was under 100 nM under setting [1] and 1.96 nM (read-out: IC50). For the same compound, the inhibition at 0.1 µM under setting [2] stood at 94.2%.
The like results for `N#Cc1ccc2[nH]c(=O)n([C@@H]3CCN(C(=O)O[C@H]4C5CC6CC4C[C@](C(N)=O)(C6)C5)C3)c2c1` [EXAMPLE 65, (R)-trans-1-carbamoyl-4-adamantyl 3-(6-cyano-2-oxo-2,3-dihydro-1H-benzo[d]imidazol-1-yl)pyrrolidine-1-carboxylate] were, in that order, under 100 nM, 33.1 nM and 69%.
With `O=C(OC1C2CC3CC(C2)CC1C3)N1CCC(c2ncc(Cl)cn2)C1` (stereo not shown) [EXAMPLE 34, 2-adamantyl 3-(5-chloropyrimidin-2-yl)pyrrolidine-1-carboxylate], the half-maximal inhibitory concentration (IC50) under setting [1] was under 100 nM and the IC50 (read-out: IC50) amounted to 0.52 nM. In addition, under setting [2], the inhibition at 0.1 µM worked out at 96.8%.
On to `Cn1c(=O)n([C@H]2CCN(C(=O)O[C@H]3C4CC5CC3C[C@](C(N)=O)(C5)C4)C2)c2ccc(C#N)cc21` [EXAMPLE 70, (S)-trans-1-carbamoyl-4-adamantyl 3-(5-cyano-3-methyl-2-oxo-2,3-dihydro-1H-benzo[d]imidazol-1-yl)pyrrolidine-1-carboxylate], for which, under setting [1], the IC50 was under 100 nM. Moreover, the inhibition at 0.1 µM (read-out: Average % inhibition at 100 nM) was found to be 91.3%.
Turning to `Cc1ccc(C2CCN(C(=O)OC3C4CC5CC3CC(C(N)=O)(C5)C4)C2)nc1` (single isomer, unassigned) [EXAMPLE 35 Isomer 1, trans-1-carbamoyl-4-adamantyl 3-(5-methylpyridin-2-yl)pyrrolidine-1-carboxylate], under “100 nM compound”, the “Average % inhibition at 100 nM” value came out at 91.6%. The half-maximal inhibitory concentration (IC50) was under 100 nM under setting [1] and 1.61 nM (read-out: IC50).
For the compound `NC(=O)[C@]12CC3CC(C1)[C@@H](OC(=O)N1CC[C@@H](Oc4ccc5nccn5n4)C1)C(C3)C2` [EXAMPLE 3, (R)-(trans-(1-carbamoyl-4-adamantyl)) 3-(imidazo[1,2-b]pyridazin-6-yloxy)pyrrolidine-1-carboxylate], the IC50 is under 100 nM under setting [1] and 6.39 nM (read-out: IC50). Further, the inhibition at 0.1 µM under setting [2] is 92.1%.
As for `NC(=O)[C@]12CC3CC(C1)[C@@H](OC(=O)N1CCC(c4ncc(Cl)cn4)C1)C(C3)C2` (single isomer, unassigned) [EXAMPLE 26, trans-(1-carbamoyl-4-adamantyl) 3-(5-chloropyrimidin-2-yl)pyrrolidine-1-carboxylate], the “Average % inhibition at 100 nM” value (100 nM compound) worked out at 94.5%. The concentration for half-maximal inhibition (IC50) is under 100 nM under setting [1] and 1.12 nM (read-out: IC50).
The corresponding values for `Cc1cnc(C2CCN(C(=O)OC3C4CC5CC3CC(C(N)=O)(C5)C4)C2)nc1` (single isomer, unassigned) [EXAMPLE 39 Isomer 1, 1-carbamoyl-4-adamantyl 3-(5-methylpyrimidin-2-yl)pyrrolidine-1-carboxylate] are 59.7%, under 100 nM and 2.99 nM.
As to `NC(=O)c1cnc(C2CCN(C(=O)OC3C4CC5CC3CC(C(N)=O)(C5)C4)C2)nc1` (single isomer, unassigned) [EXAMPLE 47 Isomer 2, 1-carbamoyl-4-adamantyl 3-(5-carbamoylpyrimidin-2-yl)pyrrolidine-1-carboxylate], the “Average % inhibition at 100 nM” value (100 nM compound) was determined as 55.6%. The half-inhibitory concentration (IC50) is under 100 nM under setting [1] and 91.6 nM (read-out: IC50).
Turning to `O=C(O)COCC1(c2ccccc2)CCN(C(=O)OC2C3CC4CC(C3)CC2C4)CC1` (stereo not shown) [EXAMPLE 16, 2-((1-(2-adamantyloxycarbonyl)-4-phenylpiperidin-4-yl)methoxy)acetic acid], the inhibition at 0.111 µM stood at 72.3%. In addition, the half-inhibitory concentration (IC50) under setting [1] is under 100 nM. Moreover, where the note is “read-out: IC50”, the concentration for half-maximal inhibition (IC50) worked out at 43.8 nM.
For `Cn1cc(-c2cnc(C3CCN(C(=O)OC4C5CC6CC4CC(C(N)=O)(C6)C5)C3)nc2)ccc1=O` (single isomer, unassigned) [EXAMPLE 58 Isomer 1, trans-1-carbamoyl-4-adamantyl 3-(5-(1-methyl-6-oxo-1,6-dihydropyridin-3-yl)pyrimidin-2-yl)pyrrolidine-1-carboxylate], for the setting “100 nM compound”, the “Average % inhibition at 100 nM” value was found to be 69.4%. Further, the IC50 under setting [1] was under 100 nM and the IC50 (read-out: IC50) came out at 33.3 nM.
As for `O=C(OC1C2CC3CC(C2)CC1C3)N1CCC[C@@H]1c1nc(-c2ccncc2)cs1` (stereo partly drawn) [EXAMPLE 50, (R)-2-adamantyl 2-(4-(pyridin-4-yl)thiazol-2-yl)pyrrolidine-1-carboxylate], the half-inhibitory concentration (IC50) is, setting by setting: under setting [1], under 100 nM; (read-out: IC50) 0.91 nM. For the same compound, the inhibition at 0.1 µM under setting [2] came to 98.2%.
Turning to `Cc1ccc(C2CCN(C(=O)OC3C4CC5CC3CC(C(N)=O)(C5)C4)C2)nn1` (single isomer, unassigned) [EXAMPLE 37 Isomer 1, trans-1-carbamoyl-4-adamantyl 3-(6-methylpyridazin-3-yl)pyrrolidine-1-carboxylate], the “Average % inhibition at 100 nM” value (100 nM compound) is 76.6%.
As for `Cc1noc(C2CCN(C(=O)O[C@H]3C4CC5CC3C[C@](C(N)=O)(C5)C4)C2)n1` (stereo partly drawn) [EXAMPLE 23, trans-1-carbamoyl-4-adamantyl 3-(3-methyl-1,2,4-oxadiazol-5-yl)pyrrolidine-1-carboxylate], the half-inhibitory concentration (IC50) is under 100 nM under setting [1] and 17.6 nM (read-out: IC50). Besides, the inhibition at 0.1 µM under setting [2] is 79.3%.
In the case of `NC(=O)[C@]12CC3CC(C1)[C@@H](OC(=O)N1CC[C@@H](n4c(=O)[nH]c5cc(Cl)cnc54)C1)C(C3)C2` [EXAMPLE 69, (R)-trans-1-carbamoyl-4-adamantyl 3-(6-chloro-2-oxo-1H-imidazo[4,5-b]pyridin-3(2H)-yl)pyrrolidine-1-carboxylate], the IC50 runs as follows: under setting [1], under 100 nM; (read-out: IC50) 1.04 nM. Further, the inhibition at 0.1 µM under setting [2] turned out to be 97%.
The corresponding values for `O=C(OC1C2CC3CC(C2)CC1C3)N1CCC(c2nc(-c3ccncc3)cs2)C1` (stereo not shown) [EXAMPLE 51, 2-adamantyl 3-(4-(pyridin-4-yl)thiazol-2-yl)pyrrolidine-1-carboxylate] are under 100 nM, 0.7 nM and 96.8%.
For `Cc1cc(C2CCN(C(=O)OC3C4CC5CC3CC(C(N)=O)(C5)C4)C2)nn1C` (single isomer, unassigned) [EXAMPLE 40 Isomer 1, 1-carbamoyl-4-adamantyl 3-(1,5-dimethyl-1H-pyrazol-3-yl)pyrrolidine-1-carboxylate], the “Average % inhibition at 100 nM” value (100 nM compound) is 90.8%. The half-maximal inhibitory concentration (IC50) is, setting by setting: under setting [1], under 100 nM; (read-out: IC50) 6.88 nM.
The like results for `NC(=O)[C@]12CC3CC(C1)[C@@H](OC(=O)N1CCC(c4ncc(Cl)cn4)C1)C(C3)C2` (single isomer, unassigned) [EXAMPLE 26 Isomer 1a, (1-carbamoyl-4-adamantyl) 3-(5-chloropyrimidin-2-yl)pyrrolidine-1-carboxylate] were, in that order, 102.6%, under 100 nM and 1.15 nM.
On to `Cc1ncc(C2CCN(C(=O)OC3C4CC5CC3CC(C(N)=O)(C5)C4)C2)cn1` (single isomer, unassigned) [EXAMPLE 36 Isomer 2, 1-carbamoyl-4-adamantyl 3-(2-methylpyrimidin-5-yl)pyrrolidine-1-carboxylate], for which, for the setting “100 nM compound”, the “Average % inhibition at 100 nM” value turned out to be 1.5%. The 50% inhibitory concentration (IC50) is, setting by setting: under setting [1], over 100 nM; (read-out: IC50) over 100 nM.
Consider `NC(=O)[C@]12CC3CC(C1)[C@@H](OC(=O)N1CC[C@@H](Oc4ccc(C(F)(F)F)cn4)C1)C(C3)C2` [EXAMPLE 5, (R)-(trans-(1-carbamoyl-4-adamantyl)) 3-(5-(trifluoromethyl)pyridin-2-yloxy)pyrrolidine-1-carboxylate], for which the concentration for half-maximal inhibition (IC50) was under 100 nM under setting [1] and 0.99 nM (read-out: IC50). Under setting [2], the inhibition at 0.1 µM turned out to be 94.9%.
